Laboratory results published in US20260159486A1, “BENZO[H]QUINAZOLINE-4-AMINE DERIVATIVES FOR THE TREATMENT OF CANCER” (Redona Therapeutics, Inc., priority 2021, published 2026).

What was measured:
CAL-51 cells = test: CAL-51 proliferation assay; assay type: cell-based; details: YO-PRO-1 Iodide readout
Source text: (§1) MDA-MB-231 and CAL-51 Proliferation Assay
(§2) Cells (MDA-MB-231 (American Type Culture Collection (ATCC), #HTB-26) or CAL-51 (Deutsche Sammlung von Mikroorganismen und Zellkulturen (DSMZ), #ACC302) as applicable) were cultivated in DMEM High Glucose (4.5 g/L) with L-Glutamine (BioConcept, cat. no. 1-26F03-I) supplemented with 1% Na-pyruvate (Sigma, cat. no. S8636), 1% Penicillin-Streptomycin (BioConcept, cat. no. 4-01F00H), and 10% FBS (Sigma, cat. no. F9665) using standard techniques. Cells were seeded in black, clear-bottom 384 well plates for tissue culture (Greiner Bio-One, cat. no. 781091) at a density of 750 cells per well in 20 μL medium and the plates were incubated overnight at 37° C. with 5% CO2 prior to treatment. Experimental compounds were serially diluted in DMSO to 200× the desired final concentrations. The solutions were then diluted 1:40 with culture medium and 5 μL aliquots were mixed into the wells containing the cells. The final concentration of DMSO was 0.5%. The plates were incubated for 72 hours and cell numbers were then measured using YO-PRO™-1 Iodide (ThermoFisher Scientific, cat. no. Y3603) essentially as recommended by the manufacturer. Briefly, a 12.5 μM solution of YO-PRO™_1 Iodide in 5× YO—PRO buffer (100 mM Na-citrate, 130 mM NaCl, pH 4) was combined with an equal volume of lysis buffer (0.6% NP-40, 30 mM EDTA, 30 mM EGTA, 0.33× YO—PRO buffer) and 12.5 μL of the mixture were dispensed into each well. The plates were incubated at room temperature in the dark for 30 minutes. Fluorescence intensity signals were then measured on a Synergy 4 reader (BioTek) using 485/20 nm and 530/25 nm filters for the excitation and emission, respectively. Relative proliferation values were calculated by normalizing the raw data using DMSO-treated cells (100% proliferation) and the signals obtained from cells that were evaluated at the time of compound addition (0% proliferation). The concentration-response data were fitted to a sigmoidal 4-parameter logistic model with the maximum constrained to 100%. GI50 values were calculated from the curves as the compound concentrations reducing proliferation to 50%.

recombinant human CLK3 = molecular target: T1, recombinant human CLK3 (Homo sapiens, UniProt P49761); test: CLK3 kinase assay (LANCE Ultra); assay type: biochemical; details: CLK3 0.5 nM, ATP 300 μM, 3 hours at 30° C.
T1 construct: purchased Thermo Fisher Scientific PV3826
Protocol: CLK3 kinase activity was measured using the LANCE® Ultra technology (PerkinElmer) essentially as recommended by the supplier. Briefly, 2.5 μL of test sample at 4× the desired final concentration in 4% DMSO were dispensed into white, low volume, round bottom, 384 well plates (Corning, cat. no. 4512). 5 μL of a mixture containing recombinant human CLK3 (Thermo Fisher Scientific, cat. no. PV3826) and the labeled peptide substrate ULight™-CREBtide (PerkinElmer, cat. no. TRF0107) prepared in 1.33× kinase buffer (Thermo Fisher Scientific, cat. no. PV3189) were then added. Finally, the reactions were started by adding 2.5 μL of a 4× solution of ATP in kinase buffer. The plates were sealed with adhesive foils and incubated for 3 hours at 30° C. in the dark. The final concentrations of CLK3, ULight™-CREBtide, and ATP were 0.5 nM, 50 nM, and 300 μM, respectively. 5 μL of 40 mM EDTA were then added to terminate the reactions. The Eu-anti-phospho-CREB antibody (PerkinElmer, cat. no. TRF0200) diluted in LANCE® detection buffer (PerkinElmer, cat. no. CR97) was then added to a final concentration of 2 nM and the reactions were incubated for 1 hour at room temperature in the dark. The signals were measured using a Synergy 4 reader (BioTek) with a 320/80 nm filter for the excitation and 620/10 nm and 665/8 nm filters for the donor and acceptor emission, respectively. Relative inhibition values were calculated by normalizing the raw data using solvent control wells (0% inhibition) and wells that received no ATP (100% inhibition). IC50 values were calculated by fitting the concentration-response data to a sigmoidal 4-parameter logistic model. IC50 values for CLK3 are determined from duplicate measurements at ten different concentrations (serial 1:3 dilutions).

MDA-MB-231 cells = test: MDA-MB-231 proliferation assay; assay type: cell-based; details: YO-PRO-1 Iodide readout
Source text: as §1, §2

T1 sequence (P49761 whole entry): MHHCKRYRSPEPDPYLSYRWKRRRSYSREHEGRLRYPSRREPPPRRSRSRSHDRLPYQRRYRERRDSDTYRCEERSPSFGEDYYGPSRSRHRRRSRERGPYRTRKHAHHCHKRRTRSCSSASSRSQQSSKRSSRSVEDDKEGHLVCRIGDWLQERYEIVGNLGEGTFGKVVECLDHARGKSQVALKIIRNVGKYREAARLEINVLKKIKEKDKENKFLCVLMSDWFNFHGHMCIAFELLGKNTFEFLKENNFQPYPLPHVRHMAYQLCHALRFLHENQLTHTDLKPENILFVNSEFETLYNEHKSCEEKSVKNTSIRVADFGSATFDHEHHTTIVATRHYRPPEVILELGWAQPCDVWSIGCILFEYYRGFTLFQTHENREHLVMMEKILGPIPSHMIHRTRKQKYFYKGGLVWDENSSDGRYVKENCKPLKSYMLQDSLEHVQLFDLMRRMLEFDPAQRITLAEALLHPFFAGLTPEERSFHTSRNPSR

Row | SMILES | GI50 (CAL-51 cells; Homo sapiens, CAL-51, 72 h) [µM] | IC50 (recombinant human CLK3) [µM] | GI50 (MDA-MB-231 cells; Homo sapiens, MDA-MB-231, 72 h) [µM] | GI50 (CAL-51 cells; 72 hours) [µM] | GI50 (MDA-MB-231 cells; 72 hours) [µM]
1 | CCOCCN(C)c1c(O[C@H]2CC[C@H](N)CC2)ccc2c1CC(C)(C)c1c(N)ncnc1-2 [Example 36, 8-(trans-4-aminocyclohexoxy)-N7-(2-ethoxyethyl)-N7,5,5-trimethyl-6H-benzo[h]quinazoline-4,7-diamine] | 0.1 to 2 | 0.101 to 1 | 0.1 to 2 |  | 
2 | CC1(C)Cc2c(ccc(O[C@H]3CC[C@H](N)CC3)c2N2CCC(C#N)C2)-c2ncnc(N)c21 (single isomer, unassigned) [Example 50, 1-[4-amino-8-(trans-4-aminocyclohexoxy)-5,5-dimethyl-6H-benzo[h]quinazolin-7-yl]pyrrolidine-3-carbonitrile] |  | < 0.03 |  | < 0.1 | < 0.1
3 | CC1(C)Cc2c(ccc(O[C@H]3CC[C@H](N)CC3)c2N2CCCS2(=O)=O)-c2ncnc(N)c21 [Example 119, 8-(trans-4-aminocyclohexoxy)-7-(1,1-dioxo-1,2-thiazolidin-2-yl)-5,5-dimethyl-6H-benzo[h]quinazolin-4-amine] | 0.1 to 2 | < 0.03 | 0.1 to 2 |  | 
4 | CN(CCCC#N)c1c(O[C@H]2CC[C@H](N)CC2)ccc2c1CC(C)(C)c1c(N)ncnc1-2 [Example 58, 4-[[4-amino-8-(4-trans-aminocyclohexoxy)-5,5-dimethyl-6H-benzo[h]quinazolin-7-yl]-methyl-amino]butanenitrile] | < 0.1 | < 0.03 | 0.1 to 2 |  | 
5 | CC1(C)Cc2c(ccc(Br)c2NC[C@@H]2CN(CCO)C(=O)O2)-c2ncnc(N)c21 [Example 127, (5R)-5-[[(4-amino-8-bromo-5,5-dimethyl-6H-benzo[h]quinazolin-7-yl)amino]methyl]-3-(2-hydroxyethyl)oxazolidin-2-one] | 0.1 to 2 | 0.03 to 0.1 | 0.1 to 2 |  | 
6 | Nc1ncnc2c1C1(CCCC1)Cc1c-2ccc(O[C@H]2CC[C@H](N)CC2)c1NCCO [Example 60, 2-[[4-amino-8-(4-trans-aminocyclohexoxy)spiro[6H-benzo[h]quinazoline-5,1′-cyclopentane]-7-yl]amino]ethanol] | 0.1 to 2 | 0.03 to 0.1 | 0.1 to 2 |  | 
7 | CN(c1c(O[C@H]2CC[C@H](N)CC2)ccc2c1CC(C)(C)c1c(N)ncnc1-2)S(=O)(=O)CCC(N)=O [Example 86, 3-[[4-amino-8-(trans-4-aminocyclohexoxy)-5,5-dimethyl-6H-benzo[h]quinazolin-7-yl]-methyl-sulfamoyl]propanamide] | 0.1 to 2 | < 0.03 | > 2 |  | 
8 | CCN(C)c1c(O[C@H]2CC[C@H](N)CC2)ccc2c1CC(C)(C)c1c(N)ncnc1-2 [Example 67, 8-(trans-4-aminocyclohexoxy)-N7-ethyl-N7,5,5-trimethyl-6H-benzo[h]quinazoline-4,7-diamine] | < 0.1 | < 0.03 | < 0.1 |  | 
9 | COc1ccc2c(c1C)CC(C)(C)c1c(N)ncnc1-2 [Example 1, 8-methoxy-5,5,7-trimethyl-6H-benzo[h]quinazolin-4-amine] | 0.1 to 2 | < 0.03 | > 2 |  | 
10 | COc1ccc2c(c1NCc1nnc(C(C)F)o1)CC(C)(C)c1c(N)ncnc1-2 (stereo not drawn) [Example 122, N7-[[5-(1-fluoroethyl)-1,3,4-oxadiazol-2-yl]methyl]-8-methoxy-5,5-dimethyl-6H-benzo[h]quinazoline-4,7-diamine] | 0.1 to 2 | 0.101 to 1 | > 2 |  | 
11 | CC1(C)Cc2c(ccc(O[C@H]3CC[C@H](N)CC3)c2NC(=O)CO)-c2ncnc(N)c21 [Example 45, N-[4-amino-8-(trans-4-aminocyclohexoxy)-5,5-dimethyl-6H-benzo[h]quinazolin-7-yl]-2-hydroxy-acetamide] | > 2 | 0.101 to 1 | > 2 |  | 
12 | CC(CCO)c1c(O[C@H]2CC[C@H](N)CC2)ccc2c1CC(C)(C)c1c(N)ncnc1-2 (stereo partly drawn) [Example 92, 3-[4-amino-8-(trans-4-aminocyclohexoxy)-5,5-dimethyl-6H-benzo[h]quinazolin-7-yl]butan-1-ol] | < 0.1 | < 0.03 | < 0.1 |  | 
13 | CN(CCC#N)c1c(O[C@H]2CC[C@H](N(C)C)CC2)ccc2c1CC(C)(C)c1c(N)ncnc1-2 [Example 96] | < 0.1 | < 0.03 | < 0.1 |  | 
14 | CC1(C)Cc2c(ccc(O[C@H]3CC[C@H](N)CC3)c2S(=O)(=O)NCC#N)-c2ncnc(N)c21 [Example 116, 4-amino-8-(trans-4-aminocyclohexoxy)-N-(cyanomethyl)-5,5-dimethyl-6H-benzo[h]quinazoline-7-sulfonamide] | 0.1 to 2 | 0.03 to 0.1 | 0.1 to 2 |  | 
15 | COc1ccc2c(c1N1CC(O)C1)CC(C)(C)c1c(N)ncnc1-2 [Example 25, 1-(4-amino-8-methoxy-5,5-dimethyl-6H-benzo[h]quinazolin-7-yl)azetidin-3-ol] | 0.1 to 2 | 0.101 to 1 | 0.1 to 2 |  | 
16 | CN(CC1CCOCC1)c1c(O[C@H]2CC[C@@H](N)CC2)ccc2c1CC(C)(C)c1c(N)ncnc1-2 [Example 29, 8-(cis-4-aminocyclohexoxy)-N7,5,5-trimethyl-N7-(tetrahydropyran-4-ylmethyl)-6H-benzo[h]quinazoline-4,7-diamine] | 0.1 to 2 | 0.101 to 1 | 0.1 to 2 |  | 
17 | CN(CCC(F)(F)F)c1c(O[C@H]2CC[C@H](N)CC2)ccc2c1CC(C)(C)c1c(N)ncnc1-2 [Example 43, 8-(trans-4-aminocyclohexoxy)-N7,5,5-trimethyl-N7-(3,3,3-trifluoropropyl)-6H-benzo[h]quinazoline-4,7-diamine] | 0.1 to 2 | 0.03 to 0.1 | 0.1 to 2 |  | 
18 | C/C(=C\CO)c1c(O[C@H]2CC[C@H](N)CC2)ccc2c1CC(C)(C)c1c(N)ncnc1-2 [Example 98, (E)-3-[4-amino-8-(trans-4-aminocyclohexoxy)-5,5-dimethyl-6H-benzo[h]quinazolin-7-yl]but-2-en-1-ol] | < 0.1 | < 0.03 | 0.1 to 2 |  | 
19 | Nc1ncnc2c1C1(CCCC1)Cc1c-2ccc(O[C@H]2CC[C@@H](N)CC2)c1NCC(=O)O [Example 79, 2-[[4-amino-8-(cis-4-aminocyclohexoxy)spiro[6H-benzo[h]quinazoline-5,1′-cyclopentane]-7-yl]amino]acetic acid] | > 2 | 0.03 to 0.1 | > 2 |  | 
